Data set [1] is described as follows: Solubility of the compound in phosphate buffered saline at pH 7.4. The class given is physicochemical.
Another data set deals with CYP3A4 (Homo sapiens, UniProt P08684). Description: Inhibition of Homo sapiens (human) recombinant CYP3A4 at 10 uM by fluorogenic assay. The class given is ADME.
Data set [2] addresses Sodium channel protein type 9 subunit alpha (Homo sapiens, UniProt Q15858). Briefly: Inhibition of Homo sapiens (human) NaV1.7 expressed in HEK293 cells assessed as decrease in [14C]guanidinium influx after 2 hr by liquid scintillation counting analysis. Type of data set: cell-based.
Data set [3] can be described thus: Clearance in Sprague-Dawley Rattus norvegicus (rat) at 1 mg/kg, iv. As to conditions: in vivo. The class given is ADME, organism-based. Details: dose 1 mg/kg, route intravenous.
The target in another data set is Cytochrome P450 3A4 (Homo sapiens, UniProt P08684). Description: Inhibition of Homo sapiens (human) recombinant CYP3A4 by fluorogenic assay. The class given is ADME.
Cytochrome P450 3A4, sequence (P08684 whole entry): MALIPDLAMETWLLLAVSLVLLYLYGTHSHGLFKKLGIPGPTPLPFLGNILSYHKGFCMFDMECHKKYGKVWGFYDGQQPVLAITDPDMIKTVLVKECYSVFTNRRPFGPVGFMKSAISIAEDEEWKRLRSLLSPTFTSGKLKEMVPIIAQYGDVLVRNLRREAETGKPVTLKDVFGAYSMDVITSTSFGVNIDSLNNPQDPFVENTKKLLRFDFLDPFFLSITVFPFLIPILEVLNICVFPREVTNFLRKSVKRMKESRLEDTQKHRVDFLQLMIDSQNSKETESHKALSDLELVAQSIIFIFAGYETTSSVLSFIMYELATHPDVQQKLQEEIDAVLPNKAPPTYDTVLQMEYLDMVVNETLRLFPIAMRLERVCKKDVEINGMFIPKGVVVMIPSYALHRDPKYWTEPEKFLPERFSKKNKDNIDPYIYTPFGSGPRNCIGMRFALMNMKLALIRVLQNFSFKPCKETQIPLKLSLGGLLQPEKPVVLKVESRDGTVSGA
Data set [4] is described as follows: Volume of distribution at steady state in Sprague-Dawley Rattus norvegicus (rat) at 1 mg/kg, iv. Details: dose 1 mg/kg, route intravenous. The class given is ADME, organism-based. Conditions: in vivo, read-out: Vdss.
Data set [5] can be described thus: Cytotoxicity against Homo sapiens (human) HepG2 cells assessed as cell viability after 16 hr. As to conditions: read-out: Activity. Type of data set: cell-based.
Data set [6] is described as follows: Metabolic stability in Canis lupus familiaris (dog) hepatocytes assessed as compound remaining after 2 hr. Type of data set: ADME, cell-based, Hepatocyte. As to conditions: read-out: Stability.
Another data set deals with hERG (KCNH2) (Homo sapiens, UniProt Q12809). Briefly: Inhibition of Homo sapiens (human) ERG expressed in HEK293 cells at 10 uM after 3 hr by rubidium efflux assay. The class given is cell-based. Conditions: HEK293 cells expressing human ERG.
hERG (KCNH2), sequence (Q12809 whole entry): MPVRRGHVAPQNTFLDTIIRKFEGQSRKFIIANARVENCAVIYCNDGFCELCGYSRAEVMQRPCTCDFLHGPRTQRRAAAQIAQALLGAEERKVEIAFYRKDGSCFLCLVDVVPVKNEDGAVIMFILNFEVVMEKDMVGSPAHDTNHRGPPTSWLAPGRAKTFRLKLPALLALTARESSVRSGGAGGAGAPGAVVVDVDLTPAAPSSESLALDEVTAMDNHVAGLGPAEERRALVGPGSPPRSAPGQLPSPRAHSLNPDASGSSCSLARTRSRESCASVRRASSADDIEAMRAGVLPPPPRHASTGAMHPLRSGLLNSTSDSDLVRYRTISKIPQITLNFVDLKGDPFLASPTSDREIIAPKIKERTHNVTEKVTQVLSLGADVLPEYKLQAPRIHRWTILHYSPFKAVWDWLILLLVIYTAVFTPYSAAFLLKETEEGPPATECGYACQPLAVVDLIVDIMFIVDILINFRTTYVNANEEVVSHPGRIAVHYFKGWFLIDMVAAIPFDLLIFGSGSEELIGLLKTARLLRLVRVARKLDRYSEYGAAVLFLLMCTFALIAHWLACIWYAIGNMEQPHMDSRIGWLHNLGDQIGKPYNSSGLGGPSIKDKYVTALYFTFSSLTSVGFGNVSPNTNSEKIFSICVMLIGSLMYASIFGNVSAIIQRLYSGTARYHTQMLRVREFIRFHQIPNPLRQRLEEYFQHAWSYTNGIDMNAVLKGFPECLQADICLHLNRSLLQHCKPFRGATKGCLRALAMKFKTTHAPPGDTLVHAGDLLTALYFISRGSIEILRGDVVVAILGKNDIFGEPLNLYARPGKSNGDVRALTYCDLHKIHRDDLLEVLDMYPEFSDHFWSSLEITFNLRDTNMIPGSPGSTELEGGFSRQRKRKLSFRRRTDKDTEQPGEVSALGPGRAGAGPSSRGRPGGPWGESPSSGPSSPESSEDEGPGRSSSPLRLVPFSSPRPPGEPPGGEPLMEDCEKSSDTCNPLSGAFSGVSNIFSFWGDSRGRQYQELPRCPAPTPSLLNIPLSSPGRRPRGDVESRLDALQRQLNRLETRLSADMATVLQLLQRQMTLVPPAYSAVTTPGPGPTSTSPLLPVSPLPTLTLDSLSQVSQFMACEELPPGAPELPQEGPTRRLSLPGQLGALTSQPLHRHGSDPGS
Data set [7] is described as follows: Apparent permeability across basolateral to apical side in Homo sapiens (human) Caco2 cells. Type of data set: ADME, cell-based. As to conditions: Caco-2.
The nature of data set [8]: Oral bioavailability in Sprague-Dawley Rattus norvegicus (rat) at 10 mg/kg. The class given is ADME, organism-based. Conditions: in vivo.
In data set [9] the test system is Rattus norvegicus. Description: Analgesic activity in CFA-induced Rattus norvegicus (rat) inflammatory pain model assessed as reduction of mechanical allodynia at 10 mg/kg, po after 1 hr by von Frey test relative to vehicle-treated control. The class given is functional. Details: scale not given: the % may be the effect or the level left.
Data set [10] can be described thus: Plasma protein binding in Rattus norvegicus (rat). Conditions: read-out: PPB (converted). The class given is ADME, cell-free.
Data set [11] is described as follows: AUClast in Sprague-Dawley Rattus norvegicus (rat) at 1 mg/kg, iv. Details: time 0 - last, dose 1 mg/kg, route intravenous. As to conditions: plasma. The class given is ADME, organism-based.
Data set [12] in a line: Metabolic stability in Homo sapiens (human) hepatocytes assessed as compound remaining after 2 hr. Type of data set: ADME, cell-based, Hepatocyte. As to conditions: read-out: Stability.
The nature of data set [13]: AUClast in Sprague-Dawley Rattus norvegicus (rat) at 10 mg/kg, po. The class given is ADME, organism-based. Details: time 0 - last, dose 10 mg/kg, route oral. Conditions: plasma.
The nature of data set [14]: Cmax in Sprague-Dawley Rattus norvegicus (rat) at 1 mg/kg, iv. Type of data set: ADME, organism-based. Details: dose 1 mg/kg, route intravenous. As to conditions: in vivo.
Data set [15] in a line: Metabolic stability in Rattus norvegicus (rat) hepatocytes assessed as compound remaining after 2 hr. Type of data set: ADME, cell-based, Hepatocyte. Conditions: read-out: Stability.
Data set [16] in a line: Cmax in Sprague-Dawley Rattus norvegicus (rat) at 10 mg/kg, po. Conditions: in vivo. Set-up: dose 10 mg/kg, route oral. The class given is ADME, organism-based.
Data set [17] is described as follows: Terminal half life in Sprague-Dawley Rattus norvegicus (rat) at 1 mg/kg, iv. Type of data set: ADME, organism-based. Set-up: dose 1 mg/kg, route intravenous. Conditions: in vivo, read-out: beta t1/2 (converted).
Data set [18] in a line: Tmax in Sprague-Dawley Rattus norvegicus (rat) at 10 mg/kg, po. The class given is ADME, organism-based. Details: dose 10 mg/kg, route oral. Conditions: in vivo.
The nature of data set [19]: Apparent permeability across apical to basolateral side in Homo sapiens (human) Caco2 cells. Type of data set: ADME, cell-based. Conditions: Caco-2.
Data set [20] relates to Rattus norvegicus. Description: Analgesic activity in CFA-induced Rattus norvegicus (rat) inflammatory pain model assessed as reduction of mechanical allodynia at 40 mg/kg, po after 1 hr by von Frey test. Type of data set: functional, organism-based. Set-up: dose 40 mg/kg.
A short description of data set [21]: Metabolic stability in Rattus norvegicus (rat) liver microsomes assessed as compound remaining after 30 min. Conditions: read-out: Stability. The class given is ADME.
The test system of data set [22] is Rattus norvegicus. Description: Analgesic activity in CFA-induced Rattus norvegicus (rat) inflammatory pain model assessed as reduction of mechanical allodynia at 10 mg/kg, ip after 1 hr by von Frey test. The class given is functional, organism-based. Details: dose 10 mg/kg.

Each structure is given as a SMILES string. Values after ≈ are worked out from the molar mass of the structure shown. Active and inactive are the calls of the source. The rule behind the calls is not given here.

The results in this text go back to ChEMBL document CHEMBL3045789, “Tetracyclic spirooxindole blockers of hNaV1.7: activity in vitro and in CFA-induced inflammatory pain model” (Med Chem Res, 2013).

Sodium channel protein type 9 subunit alpha, sequence (Q15858 whole entry): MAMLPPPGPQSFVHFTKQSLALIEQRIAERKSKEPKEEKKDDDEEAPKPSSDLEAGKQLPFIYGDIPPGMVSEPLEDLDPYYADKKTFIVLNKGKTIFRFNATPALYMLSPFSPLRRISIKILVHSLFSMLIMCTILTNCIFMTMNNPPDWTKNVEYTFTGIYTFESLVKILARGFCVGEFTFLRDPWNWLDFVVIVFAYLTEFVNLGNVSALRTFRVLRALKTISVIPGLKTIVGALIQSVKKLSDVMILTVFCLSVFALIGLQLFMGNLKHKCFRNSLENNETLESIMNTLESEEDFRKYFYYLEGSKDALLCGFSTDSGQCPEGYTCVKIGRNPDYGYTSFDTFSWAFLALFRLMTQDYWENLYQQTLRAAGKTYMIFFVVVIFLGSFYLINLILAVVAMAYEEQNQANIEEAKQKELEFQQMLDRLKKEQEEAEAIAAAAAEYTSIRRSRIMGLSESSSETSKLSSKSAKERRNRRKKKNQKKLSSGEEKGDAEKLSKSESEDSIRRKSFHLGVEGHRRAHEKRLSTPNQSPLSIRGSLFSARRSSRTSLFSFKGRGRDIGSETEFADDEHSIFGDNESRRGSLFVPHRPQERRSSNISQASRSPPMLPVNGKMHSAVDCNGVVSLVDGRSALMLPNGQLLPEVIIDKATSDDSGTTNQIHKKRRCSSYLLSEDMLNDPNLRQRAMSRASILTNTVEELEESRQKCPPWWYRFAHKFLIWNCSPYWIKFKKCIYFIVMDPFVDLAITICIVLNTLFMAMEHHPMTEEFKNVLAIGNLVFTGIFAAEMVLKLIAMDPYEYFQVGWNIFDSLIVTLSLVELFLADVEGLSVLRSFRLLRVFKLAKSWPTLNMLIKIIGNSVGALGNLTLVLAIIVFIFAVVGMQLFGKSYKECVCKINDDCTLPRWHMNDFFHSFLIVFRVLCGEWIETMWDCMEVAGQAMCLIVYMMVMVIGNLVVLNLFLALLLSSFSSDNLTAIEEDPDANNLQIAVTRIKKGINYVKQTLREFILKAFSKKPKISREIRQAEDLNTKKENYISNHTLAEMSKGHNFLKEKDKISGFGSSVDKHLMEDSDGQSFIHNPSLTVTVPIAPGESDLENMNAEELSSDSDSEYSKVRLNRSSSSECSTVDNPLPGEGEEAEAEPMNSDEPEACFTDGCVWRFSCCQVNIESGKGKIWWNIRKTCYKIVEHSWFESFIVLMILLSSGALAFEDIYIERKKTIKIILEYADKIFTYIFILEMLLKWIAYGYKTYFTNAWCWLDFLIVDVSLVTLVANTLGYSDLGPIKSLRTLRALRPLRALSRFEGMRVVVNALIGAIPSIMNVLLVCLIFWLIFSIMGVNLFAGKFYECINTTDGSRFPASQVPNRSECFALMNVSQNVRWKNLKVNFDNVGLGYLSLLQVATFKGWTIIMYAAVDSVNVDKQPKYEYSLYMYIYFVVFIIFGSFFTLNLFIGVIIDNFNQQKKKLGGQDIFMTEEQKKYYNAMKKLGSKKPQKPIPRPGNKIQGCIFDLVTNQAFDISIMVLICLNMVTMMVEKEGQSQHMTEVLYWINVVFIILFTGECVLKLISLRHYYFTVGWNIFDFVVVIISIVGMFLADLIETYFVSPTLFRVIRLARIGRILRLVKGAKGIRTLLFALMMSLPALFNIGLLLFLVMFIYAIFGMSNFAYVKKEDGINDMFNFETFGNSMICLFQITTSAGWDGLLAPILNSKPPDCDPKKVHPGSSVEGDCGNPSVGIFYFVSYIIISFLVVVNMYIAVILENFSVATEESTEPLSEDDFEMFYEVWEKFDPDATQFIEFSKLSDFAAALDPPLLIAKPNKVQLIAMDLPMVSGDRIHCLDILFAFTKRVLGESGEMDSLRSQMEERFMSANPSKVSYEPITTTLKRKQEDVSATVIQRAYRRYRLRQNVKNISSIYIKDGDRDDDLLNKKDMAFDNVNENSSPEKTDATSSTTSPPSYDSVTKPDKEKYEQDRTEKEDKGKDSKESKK
CYP3A4, sequence (P08684 whole entry): as the sequence (P08684 whole entry) above

As to `N#Cc1cc2c(cc1F)OCC21C(=O)N(Cc2ncccc2C(F)(F)F)c2ccccc21` (stereo unspecified), in data set [1], the solubility is below 5 µg/mL. For the same molecule, at CYP3A4, the inhibition at 10 µM was 10%. The IC50 in [2] was above 1000 nM.
In the same order, the values of `COc1cc2c(cc1C)C1(CO2)C(=O)N(Cc2ccccn2)c2ccccc21` (stereo unspecified) are 7 µg/mL (≈ 18.8 µM), 61% and 1150 nM.
On the same counts, the results for `COc1cc2c(cn1)OCC21C(=O)N(CC2CCCCO2)c2ccccc21` (stereo unspecified) are 67 µg/mL (≈ 183 µM), 22% and 100 nM.
On the same counts, the results for `COc1ccc2c(c1)OCC21C(=O)N(CC2CCCCO2)c2ccccc21` (stereo unspecified) are 14 µg/mL (≈ 38.3 µM), 35% and 10 nM.
With `CCCCCN1C(=O)C2(COc3cc(F)c(F)cc32)c2ccccc21` (stereo unspecified), in data set [1], the solubility is below 5 µg/mL. In addition, the inhibition at 10 µM on CYP3A4 came to 50%. For the same molecule, the IC50 in data set [2] is 240 nM.
On the same counts, the results for `COc1cc2c(cc1F)C1(CO2)C(=O)N(Cc2ccc(C(F)(F)F)o2)c2ccccc21` (stereo unspecified) are below 5 µg/mL, 69% and 430 nM.
On the same counts, the results for `CCCCCN1C(=O)C2(COc3cc(OC)ccc32)c2ccccc21` (stereo unspecified) are below 5 µg/mL, 64% and 60 nM.
`CCCCCN1C(=O)C2(COc3cc4c(cc32)OCO4)c2ccccc21` (stereo unspecified): the inhibition at 10 µM at CYP3A4 came out at 97%.
Regarding `O=C1N(Cc2ccccn2)c2ccccc2C12COc1cc(F)c(F)cc12` (stereo unspecified), the solubility in [1] came out at 13 µg/mL (≈ 35.7 µM). The inhibition at 10 µM on CYP3A4 stood at 30%. Moreover, in [2], the IC50 came to 270 nM.
Regarding `COc1cc2c(cc1F)OCC21C(=O)N(Cc2ccccn2)c2ccccc21` (stereo unspecified), the solubility in data set [1] was 36 µg/mL (≈ 95.6 µM). In addition, at CYP3A4, the inhibition at 10 µM was 16%. Also, in data set [2], the IC50 is 470 nM.
In the case of `COc1cc2c(cn1)OCC21C(=O)Nc2ccccc21` (stereo unspecified), the solubility in [1] is 52 µg/mL (≈ 194 µM). The inhibition at 10 µM on CYP3A4 came to 13%. Also, the 50% inhibitory concentration (IC50) in data set [2] turned out to be 350 nM.
On the same counts, the results for `COc1cc2c(cn1)OCC21C(=O)N(C[C@H]2CCCO2)c2ccccc21` (stereo partly specified) are below 5 µg/mL, 14% and 50 nM.
In the same order, the values of `COc1ccc2c(n1)C1(CO2)C(=O)N(Cc2ccc3c(c2)OCCO3)c2ccccc21` (stereo unspecified) are 5 µg/mL (≈ 12 µM), 63% and 30 nM.
On the same counts, the results for `COc1ccc2c(n1)C1(CO2)C(=O)N(Cc2ccc(Cl)s2)c2ccccc21` (stereo unspecified) are below 5 µg/mL, 73% and 60 nM.
As for `COc1ccc2c(n1)C1(CO2)C(=O)Nc2ccccc21` (stereo unspecified), the solubility in data set [1] came out at 52 µg/mL (≈ 194 µM). Further, the inhibition at 10 µM at CYP3A4 came out at 27%. Further, the half-maximal inhibitory concentration (IC50) in [2] is above 1000 nM.
On the same counts, the results for `COc1cc2c(cc1OC)C1(CO2)C(=O)N(Cc2ccc(Cl)s2)c2ccccc21` (stereo unspecified) are 8 µg/mL (≈ 18.7 µM), 75% and 700 nM.
In the case of `COc1ccc2c(n1)C1(CO2)C(=O)N(Cc2csc(C(C)C)n2)c2ccccc21` (stereo unspecified), the concentration in solution in data set [1] (solubility) was 5 µg/mL (≈ 12.3 µM). Also, at CYP3A4, the inhibition at 10 µM was found to be 70%. Also, in data set [2], the half-maximal inhibitory concentration (IC50) was 60 nM.
`COc1cc2c(cn1)OCC21C(=O)N(Cc2ccc(C(F)(F)F)o2)c2ccccc21` (stereo unspecified) yielded a solubility in [1] below 5 µg/mL. Besides, the inhibition at 10 µM on CYP3A4 is 74%. In addition, in data set [2], the IC50 is 4 nM.
In data set [3], `COc1ccc2c(n1)C1(CO2)C(=O)N(Cc2ccc(C(F)(F)F)o2)c2ccccc21` (stereo unspecified) had a clearance of 66.7 mL/min/kg. The same molecule returned a solubility in data set [1] below 5 µg/mL. The IC50 was above 10000 nM on Cytochrome P450 3A4 and 130 nM in data set [2]. Further, the Vd in [4] is 4.1 L/kg. The viability at 16 h in data set [5] was above 96%. Moreover, the remaining at 2 h in data set [6] came out at 49%; in [12] it was 29%; in data set [15] it was 18%. Also, the inhibition at 3 h, 10 µM against hERG (KCNH2) is 7.5%. The Papp B→A in data set [7] stood at 8.8 ×10⁻⁶ cm/s. The molecule further returned a bioavailability in data set [8] of 3.2%. Besides, the inhibition at 10 µM at CYP3A4 worked out at 26%. Also, in the data set with Rattus norvegicus [9], the Activity was determined as 59%. Moreover, in data set [10], the fraction unbound was 0.05. Moreover, the AUC(0-t) in [11] amounted to 244 ng·h/mL; in data set [13] it was 77.1 ng·h/mL. Further, the highest concentration (Cmax) in data set [14] turned out to be 884 ng/mL; in data set [16], 12.7 ng/mL. Besides, the half-life in data set [17] is 1.9 h. Further, in data set [18], the Tmax was 4 h. In data set [19], the Papp A→B was 9.1 ×10⁻⁶ cm/s.
For the molecule `Cc1cc2c(cc1C)C1(CO2)C(=O)N(Cc2ccccn2)c2ccccc21` (stereo unspecified), in [1], the solubility was found to be 6 µg/mL (≈ 16.8 µM). Moreover, the inhibition at 10 µM at CYP3A4 worked out at 43%. The half-maximal inhibitory concentration (IC50) in [2] came to 230 nM.
In the same order, the values of `COc1cc2c(cc1F)C1(CO2)C(=O)N(Cc2ccccn2)c2ccccc21` (stereo unspecified) are 15 µg/mL (≈ 39.9 µM), 36% and 190 nM.
In the same order, the values of `COc1ccc2c(n1)C1(CO2)C(=O)N(Cc2ncccc2C(F)(F)F)c2ccccc21` (stereo unspecified) are below 5 µg/mL, 49% and above 250 nM.
As for `COc1cc2c(cn1)OCC21C(=O)N(C[C@@H]2CCCO2)c2ccccc21` (stereo partly specified), the concentration in solution in [1] (solubility) came to 61 µg/mL (≈ 173 µM). Moreover, the result in the data set with Rattus norvegicus [20] and in the data set with Rattus norvegicus [22] was inactive. Moreover, the inhibition at 10 µM on CYP3A4 amounted to 22%. Moreover, the remaining at 0.5 h in data set [21] worked out at 8%. In addition, the IC50 in [2] is 20 nM.
Regarding `COc1ccc2c(c1)OCC21C(=O)N(Cc2ccccn2)c2ccccc21` (stereo unspecified), the solubility in data set [1] came to 25 µg/mL (≈ 69.8 µM). The inhibition at 10 µM at CYP3A4 came out at 29%. For the same molecule, in data set [2], the 50% inhibitory concentration (IC50) stood at 8 nM.
For `COc1ccc2c(c1)OCC21C(=O)N(C[C@H]2CCCO2)c2ccccc21` (stereo partly specified), the solubility in [1] came to 45 µg/mL (≈ 128 µM). In addition, the inhibition at 10 µM at CYP3A4 came to 18%. Besides, the IC50 in [2] was 110 nM.
In the same order, the values of `COc1ccc2c(n1)C1(CO2)C(=O)N(Cc2ccccn2)c2ccccc21` (stereo unspecified) are below 5 µg/mL, 42% and 180 nM.
On the same counts, the results for `COCCOc1ccc2c(c1)OCC21C(=O)N(Cc2ccccn2)c2ccccc21` (stereo unspecified) are 46 µg/mL (≈ 114 µM), 22% and 150 nM.
